Source: ChEMBL document CHEMBL3603774, “Novel 5-functionalized-pyrazoles: Synthesis, characterization and pharmacological screening” (Bioorg Med Chem Lett, 2015)
Converted amounts (≈) assume the structure as drawn.

Legend:
[1] = test system: Bacillus cereus; experiment: Antibacterial activity against Bacillus cereus MTCC 8372 at 50 ug/ml after 24 hrs by disc diffusion method; assay type: functional; conditions: MTCC 8372, 24 h, read-out: IZ
[2] = test system: Bacillus cereus; experiment: Antibacterial activity against Bacillus cereus MTCC 8372 at 100 ug/ml after 24 hrs by disc diffusion method; assay type: functional; conditions: MTCC 8372, 24 h, read-out: IZ
[3] = test system: Staphylococcus aureus; experiment: Antibacterial activity against Staphylococcus aureus MTCC 96 at 50 ug/ml after 24 hrs by disc diffusion method; assay type: functional; conditions: MTCC 96, 24 h, read-out: IZ
[4] = test system: Staphylococcus aureus; experiment: Antibacterial activity against Staphylococcus aureus MTCC 96 at 100 ug/ml after 24 hrs by disc diffusion method; assay type: functional; conditions: MTCC 96, 24 h, read-out: IZ
[5] = test system: Escherichia coli; experiment: Antibacterial activity against Escherichia coli MTCC 724 at 50 ug/ml after 24 hrs by disc diffusion method; assay type: functional; conditions: MTCC 724, 24 h, read-out: IZ
[6] = test system: Escherichia coli; experiment: Antibacterial activity against Escherichia coli MTCC 724 at 100 ug/ml after 24 hrs by disc diffusion method; assay type: functional; conditions: MTCC 724, 24 h, read-out: IZ
[7] = test system: Klebsiella pneumoniae; experiment: Antibacterial activity against Klebsiella pneumoniae MTCC 3384 at 50 ug/ml after 24 hrs by disc diffusion method; assay type: functional; conditions: MTCC 3384, 24 h, read-out: IZ
[8] = test system: Klebsiella pneumoniae; experiment: Antibacterial activity against Klebsiella pneumoniae MTCC 3384 at 100 ug/ml after 24 hrs by disc diffusion method; assay type: functional; conditions: MTCC 3384, 24 h, read-out: IZ
[9] = test system: Aspergillus flavus; experiment: Antifungal activity against Aspergillus flavus MTCC 873 at 50 ug/ml after 24 hrs by disc diffusion method; assay type: functional; conditions: MTCC 873, 24 h, read-out: IZ
[10] = test system: Aspergillus flavus; experiment: Antifungal activity against Aspergillus flavus MTCC 873 at 100 ug/ml after 24 hrs by disc diffusion method; assay type: functional; conditions: MTCC 873, 24 h, read-out: IZ
[11] = test system: Aspergillus niger; experiment: Antifungal activity against Aspergillus niger MTCC 281 at 50 ug/ml after 24 hrs by disc diffusion method; assay type: functional; conditions: MTCC 281, 24 h, read-out: IZ
[12] = test system: Bacillus cereus; experiment: Antibacterial activity against Bacillus cereus MTCC 8372 after 24 hrs by microdilution method; assay type: functional; conditions: MTCC 8372, 24 h
[13] = test system: Bacillus cereus; experiment: Antibacterial activity against Bacillus cereus MTCC 8372 assessed as concentration required to completely destroy test microorganisms after 24 hrs; assay type: functional; conditions: MTCC 8372, 24 h
[14] = test system: Staphylococcus aureus; experiment: Antibacterial activity against Staphylococcus aureus MTCC 96 after 24 hrs by microdilution method; assay type: functional; conditions: MTCC 96, 24 h
[15] = test system: Staphylococcus aureus; experiment: Antibacterial activity against Staphylococcus aureus MTCC 96 assessed as concentration required to completely destroy test microorganisms after 24 hrs; assay type: functional; conditions: MTCC 96, 24 h
[16] = test system: Escherichia coli; experiment: Antibacterial activity against Escherichia coli MTCC 724 after 24 hrs by microdilution method; assay type: functional; conditions: MTCC 724, 24 h
[17] = test system: Escherichia coli; experiment: Antibacterial activity against Escherichia coli MTCC 724 assessed as concentration required to completely destroy test microorganisms after 24 hrs; assay type: functional; conditions: MTCC 724, 24 h
[18] = test system: Klebsiella pneumoniae; experiment: Antibacterial activity against Klebsiella pneumoniae MTCC 3384 after 24 hrs by microdilution method; assay type: functional; conditions: MTCC 3384, 24 h
[19] = test system: Klebsiella pneumoniae; experiment: Antibacterial activity against Klebsiella pneumoniae MTCC 3384 assessed as concentration required to completely destroy test microorganisms after 24 hrs; assay type: functional; conditions: MTCC 3384, 24 h
[20] = test system: Aspergillus flavus; experiment: Antifungal activity against Aspergillus flavus MTCC 873 after 48 hrs by microdilution method; assay type: functional; conditions: MTCC 873, 48 h
[21] = test system: Aspergillus flavus; experiment: Antifungal activity against Aspergillus flavus MTCC 873 assessed as concentration required to completely destroy test microorganisms after 24 hrs; assay type: functional; conditions: MTCC 873, 24 h
[22] = test system: Aspergillus niger; experiment: Antifungal activity against Aspergillus niger MTCC 281 after 48 hrs by microdilution method; assay type: functional; conditions: MTCC 281, 48 h
[23] = test system: Aspergillus niger; experiment: Antifungal activity against Aspergillus niger MTCC 281 assessed as concentration required to completely destroy test microorganisms after 24 hrs; assay type: functional; conditions: MTCC 281, 24 h
[24] = test system: Aspergillus niger; experiment: Antifungal activity against Aspergillus niger MTCC 281 at 100 ug/ml after 24 hrs by disc diffusion method; assay type: functional; conditions: MTCC 281, 24 h, read-out: IZ
[25] = molecular target: T1, Alpha amylase (Homo sapiens, UniProt P0DUB6); experiment: Inhibition of alpha-amylase (unknown origin) using starch as substrate after 30 mins by spectrophotometer analysis
T1 sequence (P0DUB6 whole entry): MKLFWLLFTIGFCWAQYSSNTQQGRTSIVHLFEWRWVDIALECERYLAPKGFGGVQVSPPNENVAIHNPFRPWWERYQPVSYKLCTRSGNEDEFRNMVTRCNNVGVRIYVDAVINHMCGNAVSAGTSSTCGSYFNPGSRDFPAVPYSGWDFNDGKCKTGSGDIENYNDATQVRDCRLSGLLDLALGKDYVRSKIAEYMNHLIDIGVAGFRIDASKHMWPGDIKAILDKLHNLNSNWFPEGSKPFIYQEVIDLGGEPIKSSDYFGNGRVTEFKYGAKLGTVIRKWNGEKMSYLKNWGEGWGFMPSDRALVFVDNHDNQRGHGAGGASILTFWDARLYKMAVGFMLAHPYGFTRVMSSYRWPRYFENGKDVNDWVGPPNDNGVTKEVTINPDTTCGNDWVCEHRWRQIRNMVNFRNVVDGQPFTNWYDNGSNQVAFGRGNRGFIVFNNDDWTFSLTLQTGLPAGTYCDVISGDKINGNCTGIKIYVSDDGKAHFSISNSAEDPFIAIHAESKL

[26] = Inhibition of alpha-glucosidase (unknown origin) using p-nitrophenol glycoside as substrate after 30 mins by colorimetric analysis; parameters: species or system Homo sapiens

## CCOC(=O)c1c(-c2ccccc2)nn(-c2ccccc2)c1Cn1cnc2cc([N+](=O)[O-])ccc21
[1]
  zone of inhibition at 50 µg/mL: 5 mm
[2]
  zone of inhibition at 100 µg/mL: 10 mm
[3]
  zone of inhibition at 50 µg/mL: 6 mm
[4]
  zone of inhibition at 100 µg/mL: 12 mm
[5]
  zone of inhibition at 50 µg/mL: 8 mm
[6]
  zone of inhibition at 100 µg/mL: 18 mm
[7]
  zone of inhibition at 50 µg/mL: 6 mm
[8]
  zone of inhibition at 100 µg/mL: 11 mm
[9]
  zone of inhibition at 50 µg/mL: 6 mm
[10]
  zone of inhibition at 100 µg/mL: 10 mm
[11]
  zone of inhibition at 50 µg/mL: 5 mm
[12]
  MIC: 35 µg/mL (≈ 74.9 µM)
[13]
  MBC: 200 µg/mL (≈ 428 µM)
[14]
  MIC: 25 µg/mL (≈ 53.5 µM)
[15]
  MBC: 190 µg/mL (≈ 406 µM)
[16]
  MIC: 25 µg/mL (≈ 53.5 µM)
[17]
  MBC: 180 µg/mL (≈ 385 µM)
[18]
  MIC: 25 µg/mL (≈ 53.5 µM)
[19]
  MBC: 185 µg/mL (≈ 396 µM)
[20]
  MIC: 55 µg/mL (≈ 118 µM)
[21]
  MFC: 290 µg/mL (≈ 620 µM)
[22]
  MIC: 65 µg/mL (≈ 139 µM)
[23]
  MFC: 280 µg/mL (≈ 599 µM)
[24]
  zone of inhibition at 100 µg/mL: 10 mm
[25]
  IC50: 30 µg/mL (≈ 64.2 µM)
[26]
  IC50: 30 µg/mL (≈ 64.2 µM)
